Results taken from the supplement of paper PMC9663587.

What was measured:
[1] = compound: CO[C@@H](C)Cn1c(=O)n(C)c2cnc3ccc(-c4cncc(C(C)(C)O)c4)cc3c21
Flavopiridol [2] = compound: T1, CN1CC[C@H](c2c(O)cc(O)c3c(=O)cc(-c4ccccc4Cl)oc23)[C@H](O)C1 [Flavopiridol]
Taselisib/GDC0032 = compound: Cc1nc(-c2cn3c(n2)-c2ccc(-c4cnn(C(C)(C)C(N)=O)c4)cc2OCC3)n(C(C)C)n1 [Taselisib/GDC0032]
Saracatinib/AZD0530 = compound: CN1CCN(CCOc2cc(OC3CCOCC3)c3c(Nc4c(Cl)ccc5c4OCO5)ncnc3c2)CC1 [Saracatinib/AZD0530]
YKL-5-124 = compound: C=CC(=O)Nc1ccc(C(=O)Nc2[nH]nc3c2CN(C(=O)N[C@H](CN(C)C)c2ccccc2)C3(C)C)cc1 [YKL-5-124]; assay: GR value, 72 h; higher = faster growth (1 = untreated, <0 = killing);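 further: breast cancer and non-malignant breast epithelial lines, nine half-log doses, viable cells counted by Hoechst and LIVE/DEAD dye imaging versus time-zero plates and DMSO controls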
Flavopiridol [3] = compound: T1, Flavopiridol; assay: as above
[4] = compound: CC(=O)c1c(C)c2cnc(Nc3ccc(N4CCNCC4)cn3)nc2n(C2CCCC2)c1=O; assay: as above
BSJ-03-123 = compound: CC(=O)c1c(C)c2cnc(Nc3ccc(N4CCN(CCOCCOCCOCCNC(=O)COc5cccc6c5C(=O)N(C5CCC(=O)NC5=O)C6=O)CC4)cn3)nc2n(C2CCCC2)c1=O [BSJ-03-123]; assay: as above
[5] = compound: CCc1cnn2c(NCc3ccc[n+]([O-])c3)cc(N3CCCC[C@H]3CCO)nc12; assay: as above
Neratinib/HKI272 = compound: CCOc1cc2ncc(C#N)c(Nc3ccc(OCc4ccccn4)c(Cl)c3)c2cc1NC(=O)/C=C/CN(C)C [Neratinib/HKI272]; assay: as above
[6] = compound: CCN1CCN(Cc2ccc(Nc3ncc(F)c(-c4cc(F)c5nc(C)n(C(C)C)c5c4)n3)nc2)CC1; assay: as above
THZ531 = compound: CN(C)C/C=C/C(=O)Nc1ccc(C(=O)N2CCC[C@@H](Nc3ncc(Cl)c(-c4c[nH]c5ccccc45)n3)C2)cc1 [THZ531]; assay: as above
LEE011/Ribociclib = compound: CN(C)C(=O)c1cc2cnc(Nc3ccc(N4CCNCC4)cn3)nc2n1C1CCCC1 [LEE011/Ribociclib]; assay: as above
THZ1 = compound: CN(C)C/C=C/C(=O)Nc1ccc(C(=O)Nc2cccc(Nc3ncc(Cl)c(-c4c[nH]c5ccccc45)n3)c2)cc1 [THZ1]; assay: as above
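Wherever GR50, 72 h is given: breast cancer and non-malignant breast epithelial cell lines, Deep Dye Drop or Dye Drop imaging, nine half-log doses, GR normalized to time-zero plates and DMSO-only controls.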

In the case of HTERT_HME1, the “GR50, 72 h” value [1] is reported as 0.00274 µM, the “GR50, 72 h” value (Flavopiridol [2]) is reported as 0.112 µM and the “GR50, 72 h” value (Taselisib/GDC0032) is reported as 0.148 µM. The “GR50, 72 h” value (Saracatinib/AZD0530) was 7.23 µM, the GR value (YKL-5-124; 0.001 µM) was 0.41 GR and the GR value (YKL-5-124; 0.003162 µM) was 0.245 GR. The GR value (YKL-5-124; 0.01 µM) was 0.16 GR, the GR value (YKL-5-124; 0.03162 µM) was 0.177 GR and the GR value (YKL-5-124; 0.1 µM) was 0.0758 GR. For the same cell line, the GR value (YKL-5-124; 0.3162 µM) was 0.0849 GR, the GR value (YKL-5-124; 1 µM) was 0.0535 GR and the GR value (YKL-5-124; 3.162 µM) was -0.036 GR. It also gave a GR value (YKL-5-124; 10 µM) of -0.144 GR, a GR value (Flavopiridol [3]; 0.0001 µM) of 1 GR and a GR value (Flavopiridol [3]; 0.0003162 µM) of 0.975 GR. For the same cell line, the GR value (Flavopiridol [3]; 0.001 µM) was 0.942 GR, the GR value (Flavopiridol [3]; 0.003162 µM) was 0.876 GR and the GR value (Flavopiridol [3]; 0.01 µM) was 0.892 GR. It also gave a GR value (Flavopiridol [3]; 0.03162 µM) of 0.806 GR, a GR value (Flavopiridol [3]; 0.1 µM) of 0.536 GR and a GR value (Flavopiridol [3]; 0.3162 µM) of 0.155 GR. For the same cell line, the GR value (Flavopiridol [3]; 1 µM) was -0.408 GR, the GR value ([4]; 0.0003162 µM) was 1.03 GR and the GR value ([4]; 0.001 µM) was 1.06 GR. It also gave a GR value ([4]; 0.003162 µM) of 1.03 GR, a GR value ([4]; 0.01 µM) of 0.956 GR and a GR value ([4]; 0.03162 µM) of 0.796 GR. It also gave a GR value ([4]; 0.1 µM) of 0.615 GR, a GR value ([4]; 0.3162 µM) of 0.458 GR and a GR value ([4]; 1 µM) of 0.354 GR. It also gave a GR value ([4]; 3.162 µM) of 0.235 GR, a GR value (BSJ-03-123; 0.001 µM) of 0.903 GR and a GR value (BSJ-03-123; 0.003162 µM) of 0.87 GR. It also gave a GR value (BSJ-03-123; 0.01 µM) of 0.78 GR, a GR value (BSJ-03-123; 0.03162 µM) of 0.635 GR and a GR value (BSJ-03-123; 0.1 µM) of 0.702 GR. The GR value (BSJ-03-123; 0.3162 µM) was 0.551 GR, the GR value (BSJ-03-123; 1 µM) was 0.386 GR and the GR value (BSJ-03-123; 3.162 µM) was 0.34 GR. For the same cell line, the GR value (BSJ-03-123; 10 µM) was -0.153 GR, the GR value ([5]; 0.0001 µM) was 1.08 GR and the GR value ([5]; 0.0003162 µM) was 1.07 GR. The GR value ([5]; 0.001 µM) was 1.1 GR, the GR value ([5]; 0.003162 µM) was 1.09 GR and the GR value ([5]; 0.01 µM) was 0.754 GR. The GR value ([5]; 0.03162 µM) was -0.268 GR, the GR value ([5]; 0.1 µM) was -0.267 GR and the GR value ([5]; 0.3162 µM) was -0.27 GR. It also gave a GR value ([5]; 1 µM) of -0.28 GR, a GR value (Neratinib/HKI272; 0.0003162 µM) of 1.07 GR and a GR value (Neratinib/HKI272; 0.001 µM) of 1.09 GR. For the same cell line, the GR value (Neratinib/HKI272; 0.003162 µM) was 1.08 GR, the GR value (Neratinib/HKI272; 0.01 µM) was 1.01 GR and the GR value (Neratinib/HKI272; 0.03162 µM) was 0.89 GR. For the same cell line, the GR value (Neratinib/HKI272; 0.1 µM) was 0.57 GR, the GR value (Neratinib/HKI272; 0.3162 µM) was 0.349 GR and the GR value (Neratinib/HKI272; 1 µM) was 0.269 GR. The GR value (Neratinib/HKI272; 3.162 µM) was 0.105 GR, the GR value ([6]; 0.001 µM) was 1.05 GR and the GR value ([6]; 0.003162 µM) was 0.987 GR. For the same cell line, the GR value ([6]; 0.01 µM) was 0.867 GR, the GR value ([6]; 0.03162 µM) was 0.718 GR and the GR value ([6]; 0.1 µM) was 0.588 GR. For the same cell line, the GR value ([6]; 0.3162 µM) was 0.433 GR, the GR value ([6]; 1 µM) was 0.279 GR and the GR value ([6]; 3.162 µM) was 0.136 GR. It also gave a GR value ([6]; 10 µM) of 0.0346 GR, a GR value (THZ531; 0.0001 µM) of 0.956 GR and a GR value (THZ531; 0.0003162 µM) of 0.956 GR. The GR value (THZ531; 0.001 µM) was 0.939 GR, the GR value (THZ531; 0.003162 µM) was 1.03 GR and the GR value (THZ531; 0.01 µM) was 1.11 GR. The GR value (THZ531; 0.03162 µM) was 1.02 GR, the GR value (THZ531; 0.1 µM) was 0.889 GR and the GR value (THZ531; 0.3162 µM) was 0.179 GR. The GR value (THZ531; 1 µM) was -0.207 GR, the GR value (LEE011/Ribociclib; 0.001 µM) was 0.864 GR and the GR value (LEE011/Ribociclib; 0.003162 µM) was 0.776 GR. It also gave a GR value (LEE011/Ribociclib; 0.01 µM) of 0.741 GR, a GR value (LEE011/Ribociclib; 0.03162 µM) of 0.737 GR and a GR value (LEE011/Ribociclib; 0.1 µM) of 0.623 GR. For the same cell line, the GR value (LEE011/Ribociclib; 0.3162 µM) was 0.568 GR, the GR value (LEE011/Ribociclib; 1 µM) was 0.538 GR and the GR value (LEE011/Ribociclib; 3.162 µM) was 0.467 GR. For the same cell line, the GR value (LEE011/Ribociclib; 10 µM) was 0.29 GR, the GR value (THZ1; 0.0001 µM) was 1.1 GR and the GR value (THZ1; 0.0003162 µM) was 0.944 GR. The GR value (THZ1; 0.001 µM) was 0.928 GR, the GR value (THZ1; 0.003162 µM) was 0.72 GR and the GR value (THZ1; 0.01 µM) was -0.0367 GR. It also gave a GR value (THZ1; 0.03162 µM) of -0.275 GR, a GR value (THZ1; 0.1 µM) of -0.295 GR and a GR value (THZ1; 0.3162 µM) of -0.319 GR. The GR value (THZ1; 1 µM) was -0.497 GR.
